# Measurements taken from ChEMBL document CHEMBL3407472, “Multi-parameter optimization of aza-follow-ups to BI 207524, a thumb pocket 1 HCV NS5B polymerase inhibitor. Part 2: Impact of lipophilicity on promiscuity and in vivo toxicity” (Bioorg Med Chem Lett, 2015).
# Columns and labels:
# [1] = Lipophilicity, log D of the compound at pH 7.4; format: physicochemical; conditions: buffer
# Hepatitis C virus [2] = experiment: Antiviral activity against Hepatitis C virus genotype 1a infected in human Huh cells assessed as inhibition of viral replication by RT-PCR-based replicon assay; format: functional, cell-based, Hepacivirus hominis; conditions: subtype 1a
# Hepatitis C virus [3] = experiment: Antiviral activity against Hepatitis C virus genotype 1b infected in human Huh cells assessed as inhibition of viral replication by RT-PCR-based replicon assay; format: functional, cell-based, Hepacivirus hominis
logD [1],EC50 (Hepatitis C virus [2]) [nM],EC50 (Hepatitis C virus [3]) [nM],SMILES
3.5,–,–,CCOc1nc(NC(=O)C2(NC(=O)c3ccc4c(C5CCCC5)c(-c5ncc(Cl)cn5)n(C)c4c3)CCC2)cnc1/C=C/C(=O)O
–,24,12,CCOc1nc(NC(=O)C2(NC(=O)c3ccc4c(C5CCCC5)c(-c5ncc(Br)cn5)n(C)c4c3)CCC2)ccc1/C=C/C(=O)O
–,89,20,CCOc1nc(NC(=O)C2(NC(=O)c3ccc4c(C5CCCC5)c(-c5ccc(F)cn5)n(C)c4c3)CCC2)cnc1/C=C/C(=O)O
–,–,53,CCOc1nc(NC(=O)C2(NC(=O)c3ccc4c(C5CCCC5)c(-c5ccc(Cl)cn5)n(C)c4c3)CCC2)cnc1/C=C/C(=O)O
2.9,–,22,CCOc1nc(NC(=O)C2(NC(=O)c3ccc4c(C5CCCC5)c(-c5cnccn5)n(C)c4c3)CCC2)cnc1/C=C/C(=O)O
–,–,89,CCOc1nc(NC(=O)C2(NC(=O)c3ccc4c(C5CCCC5)c(-c5cncnc5)n(C)c4c3)CCC2)cnc1/C=C/C(=O)O
4.2,–,30,CCOc1nc(NC(=O)C2(NC(=O)c3ccc4c(C5CCCC5)c(-c5ncc(Br)cn5)n(C)c4c3)CCC2)cnc1/C=C/C(=O)O
3.5,–,2,CCOc1nc(NC(=O)C(C)(C)NC(=O)c2ccc3c(C4CCCC4)c(-c4ccccn4)n(C)c3c2)ccc1/C=C/C(=O)O
2.9,–,7,CCOc1nc(NC(=O)C(C)(C)NC(=O)c2ccc3c(C4CCCC4)c(-c4cnccn4)n(C)c3c2)ccc1/C=C/C(=O)O
2.2,–,44,CCOc1nc(NC(=O)C(C)(C)NC(=O)c2ccc3c(C4CCCC4)c(-c4ccccn4)n(C)c3c2)cnc1/C=C/C(=O)O
–,–,18,CCOc1nc(NC(=O)C(C)(C)NC(=O)c2ccc3c(C4CCCC4)c(-c4ccc(F)cn4)n(C)c3c2)cnc1/C=C/C(=O)O
2.4,–,36,CCOc1nc(NC(=O)C(C)(C)NC(=O)c2ccc3c(C4CCCC4)c(-c4cnccn4)n(C)c3c2)cnc1/C=C/C(=O)O
2.2,–,82,CCOc1nc(NC(=O)C(C)(C)NC(=O)c2ccc3c(C4CCCC4)c(-c4cncnc4)n(C)c3c2)cnc1/C=C/C(=O)O
–,–,4,CCOc1nc(NC(=O)C2(NC(=O)c3ccc4c(C5CCCC5)c(-c5ccccn5)n(C)c4c3)CCCC2)ccc1/C=C/C(=O)O
> 5.3,–,4,CCOc1nc(NC(=O)C2(NC(=O)c3ccc4c(C5CCCC5)c(-c5ccc(F)cn5)n(C)c4c3)CCCC2)ccc1/C=C/C(=O)O
> 5.5,–,4,CCOc1nc(NC(=O)C2(NC(=O)c3ccc4c(C5CCCC5)c(-c5ccc(Cl)cn5)n(C)c4c3)CCCC2)ccc1/C=C/C(=O)O
4.1,–,5,CCOc1nc(NC(=O)C2(NC(=O)c3ccc4c(C5CCCC5)c(-c5cnccn5)n(C)c4c3)CCCC2)ccc1/C=C/C(=O)O
3.6,–,5,CCOc1nc(NC(=O)C2(NC(=O)c3ccc4c(C5CCCC5)c(-c5cncnc5)n(C)c4c3)CCCC2)ccc1/C=C/C(=O)O
> 6.6,–,5,CCOc1nc(NC(=O)C2(NC(=O)c3ccc4c(C5CCCC5)c(-c5ncc(Br)cn5)n(C)c4c3)CCCC2)ccc1/C=C/C(=O)O

logD [1],EC50 (Hepatitis C virus [2]) [nM],EC50 (Hepatitis C virus [3]) [nM],SMILES
> 6.2,–,5,CCOc1nc(NC(=O)C2(NC(=O)c3ccc4c(c3)c(C)c(-c3ccc(F)cn3)n4C3CCCCC3)CCCC2)ccc1/C=C/C(=O)O
2.6,–,16,CCOc1nc(NC(=O)C2(NC(=O)c3ccc4c(C5CCCC5)c(-c5ccccn5)n(C)c4c3)CCCC2)cnc1/C=C/C(=O)O
3.9,–,11,CCOc1nc(NC(=O)C2(NC(=O)c3ccc4c(C5CCCC5)c(-c5ccc(F)cn5)n(C)c4c3)CCCC2)cnc1/C=C/C(=O)O
> 4.4,–,13,CCOc1nc(NC(=O)C2(NC(=O)c3ccc4c(C5CCCC5)c(-c5ccc(Cl)cn5)n(C)c4c3)CCCC2)cnc1/C=C/C(=O)O
2.8,–,18,CCOc1nc(NC(=O)C2(NC(=O)c3ccc4c(C5CCCC5)c(-c5cncnc5)n(C)c4c3)CCCC2)cnc1/C=C/C(=O)O
> 4.2,–,9,CCOc1nc(NC(=O)C2(NC(=O)c3ccc4c(C5CCCC5)c(-c5ncc(Br)cn5)n(C)c4c3)CCCC2)cnc1/C=C/C(=O)O
4.2,–,6,CCOc1nc(NC(=O)C2(NC(=O)c3ccc4c(c3)c(C)c(-c3ccc(F)cn3)n4C3CCCCC3)CCCC2)cnc1/C=C/C(=O)O
4.6,–,13,COc1nc(NC(=O)C2(NC(=O)c3ccc4c(C5CCCC5)c(-c5ccc(Cl)cn5)n(C)c4c3)CCC2)ccc1/C=C/C(=O)O
–,–,50,COc1nc(NC(=O)C2(NC(=O)c3ccc4c(C5CCCC5)c(-c5cncnc5)n(C)c4c3)CCC2)ccc1/C=C/C(=O)O
3.9,–,9,COc1nc(NC(=O)C2(NC(=O)c3ccc4c(C5CCCC5)c(-c5ncc(Br)cn5)n(C)c4c3)CCC2)ccc1/C=C/C(=O)O
–,–,32,COc1nc(NC(=O)C2(NC(=O)c3ccc4c(C5CCCC5)c(-c5ncc(Cl)cn5)n(C)c4c3)CCC2)cnc1/C=C/C(=O)O
–,–,43,COc1nc(NC(=O)C2(NC(=O)c3ccc4c(C5CCCC5)c(-c5ccccn5)n(C)c4c3)CCC2)cnc1/C=C/C(=O)O
–,–,37,COc1nc(NC(=O)C2(NC(=O)c3ccc4c(C5CCCC5)c(-c5ccc(F)cn5)n(C)c4c3)CCC2)cnc1/C=C/C(=O)O
–,–,56,COc1nc(NC(=O)C2(NC(=O)c3ccc4c(C5CCCC5)c(-c5ccc(Cl)cn5)n(C)c4c3)CCC2)cnc1/C=C/C(=O)O
–,–,49,COc1nc(NC(=O)C2(NC(=O)c3ccc4c(C5CCCC5)c(-c5cnccn5)n(C)c4c3)CCC2)cnc1/C=C/C(=O)O
–,–,185,COc1nc(NC(=O)C2(NC(=O)c3ccc4c(C5CCCC5)c(-c5cncnc5)n(C)c4c3)CCC2)cnc1/C=C/C(=O)O
–,–,116,COc1nc(NC(=O)C2(NC(=O)c3ccc4c(C5CCCC5)c(-c5ncc(Br)cn5)n(C)c4c3)CCC2)cnc1/C=C/C(=O)O
3.3,–,47,COc1nc(NC(=O)C(C)(C)NC(=O)c2ccc3c(C4CCCC4)c(-c4ncc(Cl)cn4)n(C)c3c2)ccc1/C=C/C(=O)O
–,–,21,COc1nc(NC(=O)C(C)(C)NC(=O)c2ccc3c(C4CCCC4)c(-c4ccccn4)n(C)c3c2)ccc1/C=C/C(=O)O

logD [1],EC50 (Hepatitis C virus [2]) [nM],EC50 (Hepatitis C virus [3]) [nM],SMILES
3.9,–,12,COc1nc(NC(=O)C(C)(C)NC(=O)c2ccc3c(C4CCCC4)c(-c4ccc(Cl)cn4)n(C)c3c2)ccc1/C=C/C(=O)O
2.4,–,16,COc1nc(NC(=O)C(C)(C)NC(=O)c2ccc3c(C4CCCC4)c(-c4cnccn4)n(C)c3c2)ccc1/C=C/C(=O)O
3.2,–,7,COc1nc(NC(=O)C(C)(C)NC(=O)c2ccc3c(C4CCCC4)c(-c4ncc(Br)cn4)n(C)c3c2)ccc1/C=C/C(=O)O
–,–,3,COc1nc(NC(=O)C(C)(C)NC(=O)c2ccc3c(c2)c(C)c(-c2ccc(F)cn2)n3C2CCCCC2)ccc1/C=C/C(=O)O
–,–,50,COc1nc(NC(=O)C(C)(C)NC(=O)c2ccc3c(C4CCCC4)c(-c4ccccn4)n(C)c3c2)cnc1/C=C/C(=O)O
–,–,26,COc1nc(NC(=O)C(C)(C)NC(=O)c2ccc3c(C4CCCC4)c(-c4ccc(F)cn4)n(C)c3c2)cnc1/C=C/C(=O)O
–,–,44,COc1nc(NC(=O)C(C)(C)NC(=O)c2ccc3c(C4CCCC4)c(-c4ccc(Cl)cn4)n(C)c3c2)cnc1/C=C/C(=O)O
–,–,55,COc1nc(NC(=O)C(C)(C)NC(=O)c2ccc3c(C4CCCC4)c(-c4cnccn4)n(C)c3c2)cnc1/C=C/C(=O)O
–,–,330,COc1nc(NC(=O)C(C)(C)NC(=O)c2ccc3c(C4CCCC4)c(-c4cncnc4)n(C)c3c2)cnc1/C=C/C(=O)O
2.6,–,23,COc1nc(NC(=O)C(C)(C)NC(=O)c2ccc3c(C4CCCC4)c(-c4ncc(Br)cn4)n(C)c3c2)cnc1/C=C/C(=O)O
–,–,27,COc1nc(NC(=O)C(C)(C)NC(=O)c2ccc3c(c2)c(C)c(-c2ccc(F)cn2)n3C2CCCCC2)cnc1/C=C/C(=O)O
–,–,29,COc1nc(NC(=O)C2(NC(=O)c3ccc4c(C5CCCC5)c(-c5ncc(Cl)cn5)n(C)c4c3)CCCC2)cnc1/C=C/C(=O)O
–,–,31,COc1nc(NC(=O)C2(NC(=O)c3ccc4c(C5CCCC5)c(-c5ccccn5)n(C)c4c3)CCCC2)cnc1/C=C/C(=O)O
–,–,30,COc1nc(NC(=O)C2(NC(=O)c3ccc4c(C5CCCC5)c(-c5ccc(F)cn5)n(C)c4c3)CCCC2)cnc1/C=C/C(=O)O
–,–,40,COc1nc(NC(=O)C2(NC(=O)c3ccc4c(C5CCCC5)c(-c5ccc(Cl)cn5)n(C)c4c3)CCCC2)cnc1/C=C/C(=O)O
–,–,390,COc1nc(NC(=O)C2(NC(=O)c3ccc4c(C5CCCC5)c(-c5cnccn5)n(C)c4c3)CCCC2)cnc1/C=C/C(=O)O
–,–,575,COc1nc(NC(=O)C2(NC(=O)c3ccc4c(C5CCCC5)c(-c5cncnc5)n(C)c4c3)CCCC2)cnc1/C=C/C(=O)O
–,–,38,COc1nc(NC(=O)C2(NC(=O)c3ccc4c(C5CCCC5)c(-c5ncc(Br)cn5)n(C)c4c3)CCCC2)cnc1/C=C/C(=O)O
